Laboratory results as given in ChEMBL document CHEMBL1201862, “PubChem BioAssay data set” (2004).
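Protocol summary: plate cells (96-well), add compound at 5 concentrations, incubate 48 h, interpolate endpoints linearly. Abbreviation: GI50, concentration required for 50% inhibition of growth.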 Calls of active or inactive are those of the source. Cut-off read from the data, not from the text of the source: active = GI50 up to about 1.1 µM and inactive = higher.

How the values were obtained:
Assay in all cases: NCI-60 cell line screen, 48 h
SF-268 = tested on: SF-268
A549 = tested on: A549
DU-145 = tested on: DU-145
HCT-15 = tested on: HCT-15
HL-60 = tested on: HL-60
SN12C = tested on: SN12C
SW-620 = tested on: SW-620
T47D = tested on: T47D
UACC-62 = tested on: UACC-62
SF-539 = tested on: SF-539
SF-295 = tested on: SF-295
OVCAR-3 = tested on: OVCAR-3
M14 = tested on: M14
NCI-H460 = tested on: NCI-H460
Hs-578T = tested on: Hs-578T
RXF 393 = tested on: RXF 393
SNB-75 = tested on: SNB-75
OVCAR-8 = tested on: OVCAR-8
HOP-92 = tested on: HOP-92
SK-MEL-5 = tested on: SK-MEL-5

O=C1c2c(F)c(F)c(F)c(F)c2SC2=Nc3cccc4cccc(c34)N12
GI50 (SF-268): 3.61 µM (inactive)
GI50 (A549): 18.5 µM (inactive)
GI50 (DU-145): 12.2 µM (inactive)
GI50 (HCT-15): 4.92 µM
GI50 (HL-60): 2.07 µM (inactive)
GI50 (SN12C): 3.79 µM (inactive)
GI50 (SW-620): 3.29 µM (inactive)
GI50 (T47D): 1.56 µM (inactive)
GI50 (UACC-62): 4.22 µM (inactive)
GI50 (SF-539): 6.18 µM (inactive)
GI50 (SF-295): 14.5 µM (inactive)
GI50 (OVCAR-3): 3.21 µM (inactive)
GI50 (M14): 2.92 µM (inactive)
GI50 (NCI-H460): 10 µM (inactive)
GI50 (Hs-578T): 2.86 µM (inactive)
GI50 (RXF 393): 4.1 µM (inactive)
GI50 (SNB-75): 12.1 µM (inactive)
GI50 (OVCAR-8): 5.41 µM (inactive)
GI50 (HOP-92): 2.37 µM (inactive)
GI50 (SK-MEL-5): 14.1 µM (inactive)

O=C1NC(=S)NC(=O)C1=C(O)Nc1ccccc1
GI50 (SF-268): 32.7 µM (inactive)
GI50 (A549): 24.1 µM (inactive)
GI50 (DU-145): 30.5 µM (inactive)
GI50 (HCT-15): 14.2 µM
GI50 (HL-60): 28.1 µM (inactive)
GI50 (SN12C): 25.8 µM (inactive)
GI50 (SW-620): 29.2 µM (inactive)
GI50 (T47D): 28.2 µM (inactive)
GI50 (UACC-62): 19.5 µM (inactive)
GI50 (SF-539): 23.8 µM (inactive)
GI50 (SF-295): 27.7 µM (inactive)
GI50 (OVCAR-3): 25.5 µM (inactive)
GI50 (M14): 36.2 µM (inactive)
GI50 (NCI-H460): 22.7 µM (inactive)
GI50 (Hs-578T): 20.2 µM (inactive)
GI50 (RXF 393): 33.2 µM (inactive)
GI50 (SNB-75): 27.7 µM (inactive)
GI50 (OVCAR-8): 27.8 µM (inactive)
GI50 (HOP-92): 8.34 µM (inactive)
GI50 (SK-MEL-5): 21.5 µM (inactive)

S=C1NC(c2ccccc2)NC(c2ccccc2)S1 (centres undefined)
GI50 (SF-268): > 100 µM (inactive)
GI50 (A549): > 100 µM (inactive)
GI50 (DU-145): > 100 µM (inactive)
GI50 (HCT-15): 51.1 µM
GI50 (HL-60): > 100 µM (inactive)
GI50 (SN12C): > 100 µM (inactive)
GI50 (SW-620): > 100 µM (inactive)
GI50 (T47D): > 100 µM (inactive)
GI50 (UACC-62): 55 µM (inactive)
GI50 (SF-539): > 100 µM (inactive)
GI50 (SF-295): > 100 µM (inactive)
GI50 (OVCAR-3): > 100 µM (inactive)
GI50 (M14): > 100 µM (inactive)
GI50 (NCI-H460): 21.4 µM (inactive)
GI50 (Hs-578T): > 100 µM (inactive)
GI50 (RXF 393): > 100 µM (inactive)
GI50 (SNB-75): > 100 µM (inactive)
GI50 (OVCAR-8): > 100 µM (inactive)
GI50 (HOP-92): > 100 µM (inactive)
GI50 (SK-MEL-5): > 100 µM (inactive)

CSc1ncc2c(C#N)c3[nH]c4ccccc4n3c(=O)c2n1
GI50 (SF-268): 28 µM (inactive)
GI50 (DU-145): 28.8 µM (inactive)
GI50 (HCT-15): 9.71 µM
GI50 (HL-60): 7.29 µM (inactive)
GI50 (SN12C): 16 µM (inactive)
GI50 (SW-620): 23.6 µM (inactive)
GI50 (T47D): 22.9 µM (inactive)
GI50 (UACC-62): 4.61 µM (inactive)
GI50 (SF-539): 17.3 µM (inactive)
GI50 (SF-295): 9.84 µM (inactive)
GI50 (OVCAR-3): 6.7 µM (inactive)
GI50 (M14): 16.7 µM (inactive)
GI50 (NCI-H460): 13.3 µM (inactive)
GI50 (Hs-578T): 30.6 µM (inactive)
GI50 (RXF 393): 7.53 µM (inactive)
GI50 (SNB-75): 44.7 µM (inactive)
GI50 (OVCAR-8): 7.85 µM (inactive)
GI50 (HOP-92): 4.2 µM (inactive)
GI50 (SK-MEL-5): 10.6 µM (inactive)

C/C(=N\NS(=O)(=O)c1ccc(C)cc1)c1ccccn1
GI50 (SF-268): 67.3 µM (inactive)
GI50 (A549): 53.3 µM (inactive)
GI50 (DU-145): > 100 µM (inactive)
GI50 (HCT-15): 38.5 µM
GI50 (HL-60): 34 µM (inactive)
GI50 (SW-620): > 100 µM (inactive)
GI50 (T47D): 76.9 µM (inactive)
GI50 (UACC-62): 40.2 µM (inactive)
GI50 (SF-539): 40.8 µM (inactive)
GI50 (SF-295): 43.3 µM (inactive)
GI50 (OVCAR-3): 50.7 µM (inactive)
GI50 (M14): 34.6 µM (inactive)
GI50 (NCI-H460): 49.7 µM (inactive)
GI50 (Hs-578T): 87.3 µM (inactive)
GI50 (RXF 393): > 100 µM (inactive)
GI50 (SNB-75): > 100 µM (inactive)
GI50 (OVCAR-8): 50.8 µM (inactive)
GI50 (HOP-92): > 100 µM (inactive)
GI50 (SK-MEL-5): 33.4 µM (inactive)

C[C@H](CCC(=O)O)[C@H]1CC[C@H]2[C@@H]3C(=O)C[C@@H]4C[C@H](O)CC[C@]4(C)[C@H]3C[C@H](O)[C@]12C
GI50 (SF-268): > 100 µM (inactive)
GI50 (A549): > 100 µM (inactive)
GI50 (DU-145): > 100 µM (inactive)
GI50 (HCT-15): > 100 µM
GI50 (HL-60): > 100 µM (inactive)
GI50 (SN12C): > 100 µM (inactive)
GI50 (SW-620): > 100 µM (inactive)
GI50 (T47D): > 100 µM (inactive)
GI50 (UACC-62): > 100 µM (inactive)
GI50 (SF-539): > 100 µM (inactive)
GI50 (M14): > 100 µM (inactive)
GI50 (NCI-H460): > 100 µM (inactive)
GI50 (Hs-578T): < 0.01 µM (active)
GI50 (RXF 393): > 100 µM (inactive)
GI50 (SNB-75): 85.5 µM (inactive)
GI50 (OVCAR-8): > 100 µM (inactive)
GI50 (HOP-92): > 100 µM (inactive)

c1ccc(P(CCP(c2ccccn2)c2ccccn2)c2ccccc2)cc1
GI50 (A549): 0.0736 µM (active)
GI50 (DU-145): 1.19 µM (inactive)
GI50 (HCT-15): > 100 µM
GI50 (HL-60): 0.0398 µM (active)
GI50 (SN12C): 14 µM (inactive)
GI50 (SW-620): 3.51 µM (inactive)
GI50 (T47D): 0.0435 µM (active)
GI50 (UACC-62): 63.7 µM (inactive)
GI50 (SF-539): 0.577 µM (active)
GI50 (SF-295): 0.497 µM (active)
GI50 (OVCAR-3): < 0.0172 µM (active)
GI50 (M14): 19.6 µM (inactive)
GI50 (NCI-H460): 0.196 µM (active)
GI50 (Hs-578T): 7.67 µM (inactive)
GI50 (RXF 393): 19.8 µM (inactive)
GI50 (SNB-75): 0.863 µM (active)
GI50 (OVCAR-8): 0.108 µM (active)
GI50 (HOP-92): 3.01 µM (inactive)
GI50 (SK-MEL-5): 21.5 µM (inactive)
